The nature of this data set: Human HepG2 cell viability assay in 384 well format. It counts as toxicity, cell-based. On the set-up: dose 125 nL, time 70.5 hour; concentration not given beside the values. The conditions noted are these: HepG2 cells, read-out: Inhibition.

For `Cn1ncc(N2CCOCC2)c(Cl)c1=O`, the cytotoxicity at 70.5 h was -7.54%.

Take `Oc1ncccc1-c1nc(-c2cccc(CN3CCOCC3)c2)no1`: the cytotoxicity at 70.5 h was -15.1%.

For `Cc1cnc(-c2nc(-c3cccc(CN4CCOCC4)c3)no2)cn1`, the cytotoxicity at 70.5 h was -4.86%.

Consider `Cc1n[nH]c(C)c1NC(=O)CN(CC(O)c1ccc(F)cc1)C1CC1` (stereo unspecified), for which the cytotoxicity at 70.5 h was -3.36%.

For `Cc1cc(NCC2(O)CCOCC2)nc2ccccc12`, the cytotoxicity at 70.5 h was -8.29%.

For the compound `O=C(c1ccc2[nH]ccc2c1)N1CCCCC1c1nc[nH]n1` (stereo unspecified), the cytotoxicity at 70.5 h was -5.67%.

For the compound `CC(C)(CNc1cc(F)ccc1F)S(C)(=O)=O`, the cytotoxicity at 70.5 h worked out at 0.249%.

For the compound `CSC1(CNc2ccc(Br)cn2)CCOCC1`, the cytotoxicity at 70.5 h was -2.33%.

For the compound `CN(C)C1(CNc2ncc(Br)cn2)CCOCC1`, the cytotoxicity at 70.5 h is -10.2%.

As for `O=C(c1ccc(F)c(F)c1)N1CCCCC1c1nc[nH]n1` (stereo unspecified), the cytotoxicity at 70.5 h was -6.52%.

For the compound `CC(=O)N1CCC(CCNC(C)c2cc(C)cc(C)c2)CC1` (stereo unspecified), the cytotoxicity at 70.5 h turned out to be 3.75%.

Turning to `CC(=O)N1CCC(CCNC(C)c2cc(F)cc(F)c2)CC1` (stereo unspecified), the cytotoxicity at 70.5 h was -3.81%.

Regarding `Cc1cncc(C(=O)N2CCCCC2c2nc[nH]n2)c1` (stereo unspecified), the cytotoxicity at 70.5 h is -4.36%.

With `CC(CCSc1ccccc1)N1CCCN(C(N)=O)CC1` (stereo unspecified), the cytotoxicity at 70.5 h came to 28.8%.

Regarding `Cc1n[nH]c(C2CN(C(=O)c3ccn(C)c(=O)c3)CCO2)n1` (stereo unspecified), the cytotoxicity at 70.5 h worked out at 31.8%.

Turning to `O=C(Nc1nncs1)N(Cc1cccc(F)c1)C1CC1`, the cytotoxicity at 70.5 h was -5.56%.

Turning to `Cc1cc2c(o1)CC(C)(C)CC2NC(=O)CNC(=O)C1CC1` (stereo unspecified), the cytotoxicity at 70.5 h is -2.04%.

For `COc1cccc(CN(C(=O)NC2CC2)C2CCC(O)CC2)c1` (stereo unspecified), the cytotoxicity at 70.5 h is -6.74%.

In the case of `CCN(C(=O)c1cc(C)nc2ccccc12)C1CC(=O)NC1=O` (stereo unspecified), the cytotoxicity at 70.5 h was -1.78%.

Turning to `O=C(c1ccncc1)N1CCn2c(nnc2-c2ccccc2)C1`, the cytotoxicity at 70.5 h is -6.68%.

As for `O=C(c1[nH]nc(C2CC2)c1Cl)N1CCN(S(=O)(=O)c2ccccc2)CC1`, the cytotoxicity at 70.5 h was 18.5%.

Regarding `O=C(Nc1ccnc2ccnn12)c1ccc(N2CCC(O)CC2)cc1`, the cytotoxicity at 70.5 h came to 6.12%.

Regarding `CCC(NC(=O)NCc1cc(Cl)ccc1OC)c1noc(C)n1` (stereo unspecified), the cytotoxicity at 70.5 h was found to be 16%.

On to `CCC(NC(=O)Nc1ccc(OC)c(C)c1)c1noc(C)n1` (stereo unspecified), for which the cytotoxicity at 70.5 h is 4.08%.

Turning to `O=C(c1ncoc1C1CCCO1)N1CCC2(CCCCC2)CC1` (stereo unspecified), the cytotoxicity at 70.5 h is -3.26%.

For the compound `O=C(Nc1cccn(Cc2ccccc2)c1=O)c1ccncc1F`, the cytotoxicity at 70.5 h stood at 14.1%.

Turning to `O=C(c1[nH]nc(C2CC2)c1Cl)N1CCN(C2CC2)CC1`, the cytotoxicity at 70.5 h came to 0.431%.

In the case of `CC(=O)NC(c1cc(F)ccc1F)C1CC1` (stereo unspecified), the cytotoxicity at 70.5 h is -3.82%.

`Cc1nn(C)c(C)c1OCC(=O)N1CCCCC1`: the cytotoxicity at 70.5 h was -2.11%.

Regarding `COCCN(C)c1ccc(NCc2ccsc2)nc1`, the cytotoxicity at 70.5 h is -10.2%.

In the case of `Cc1cccc(C(=O)N2CCN(CCOC(C)C)CC2)n1`, the cytotoxicity at 70.5 h is -6.81%.

`CC(C)c1nc2c(n1C)CCN(CCCc1nc3ccccc3o1)C2`: the cytotoxicity at 70.5 h is -0.617%.

Turning to `CN(Cc1nccn1C)S(=O)(=O)c1cccc(C#N)c1`, the cytotoxicity at 70.5 h was -1.58%.

`CNC(=O)c1ccc(=O)n(Cc2csc(C(C)(C)C)n2)c1`: the cytotoxicity at 70.5 h was -18.4%.

Regarding `Cc1nc(C2(NCc3cccc(F)c3F)CCCCC2)no1`, the cytotoxicity at 70.5 h is -6.93%.

Take `COCC(C)(C)NS(=O)(=O)C1CS(=O)(=O)c2ccccc21` (stereo unspecified): the cytotoxicity at 70.5 h is -17.4%.

`CCSc1ccc(NC(=O)NC(C)c2c(C)nn(C)c2C)cn1` (stereo unspecified): the cytotoxicity at 70.5 h was -13.5%.

On to `CC(C)c1nc2c(n1C)CCN(CCS(=O)(=O)c1ccccc1)C2`, for which the cytotoxicity at 70.5 h is -12.4%.

For `Cc1cnn(C2CCCN(C(=O)c3c(C)oc4nc[nH]c(=O)c34)C2)c1` (stereo unspecified), the cytotoxicity at 70.5 h is -9.75%.

For `Cc1oc2nc[nH]c(=O)c2c1C(=O)N1CCCC(n2cccn2)C1` (stereo unspecified), the cytotoxicity at 70.5 h is -4.01%.

On to `CCS(=O)(=O)N1CCC(CSc2ccccc2)C1` (stereo unspecified), for which the cytotoxicity at 70.5 h was -11.1%.

Values taken from ChEMBL document CHEMBL3507680, “University of Dundee, Gates Library screen for HepG2 cell viability”.
